Where a SMILES comes first, the peptide text is derived from it. Bridges are numbered along the chain shown (N, C = ends). [ ]: non-standard residue; d: D form. The star is where a group is joined. Ala(6-(2-MePh)pyridin-3-yl) = Cc1ccccc1-c1ccc(C[C@H](N)C(=O)O)cn1; Phe(4-(2-Et-4-HO-Ph)) = CCc1cc(O)ccc1-c1ccc(C[C@H](N)C(=O)O)cc1; Phe(4-(3-Py)) = N[C@@H](Cc1ccc(-c2cccnc2)cc1)C(=O)O; Phe(3-CF3) = N[C@@H](Cc1cccc(C(F)(F)F)c1)C(=O)O; Ala(morpholin-4-yl) = N[C@@H](CN1CCOCC1)C(=O)O; Phe(4-COOH) = N[C@@H](Cc1ccc(C(=O)O)cc1)C(=O)O; Tyr(Ph) = N[C@@H](Cc1ccc(Oc2ccccc2)cc1)C(=O)O; Bip = N[C@@H](Cc1ccc(-c2ccccc2)cc1)C(=O)O; Phe(3-Me) = Cc1cccc(C[C@H](N)C(=O)O)c1; Cha = N[C@@H](CC1CCCCC1)C(=O)O; Carboxymethyl = O=C(O)C*; Nle = CCCC[C@H](N)C(=O)O; Orn = NCCC[C@H](N)C(=O)O; Dab = NCC[C@H](N)C(=O)O; X1 = C1CCC(*)CC1
What follows are compounds tested against T1, human PD-1 / PD-L1-Ig binding on Jurkat cell line over-expressing human PD-1 (Jurkat-PD-1) (Homo sapiens, UniProt Q15116) (assay: Jurkat-PD-1 Cell Binding High-Content Screening Assay (CBA)). Settings: Jurkat-PD-1 cells, PE-labeled PD-L1-Ig 20 nM final; read-out: Jurkat HPD1_PDL1 IC50.
T1 construct: expressed in transfected cells; host or cells: Jurkat
Assay type: cell-based
Summary of the method: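 Jurkat-hPD-1 cells in DMEM with 10% fetal calf serum receive test compound and are held at 37° C for 2 h. PE-labeled PD-L1-Ig is added at 20 nM final and left for 1 hour. Cells are then fixed and Hoechst-stained, and binding is measured by imaging.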

T1 sequence (Q15116 25-288): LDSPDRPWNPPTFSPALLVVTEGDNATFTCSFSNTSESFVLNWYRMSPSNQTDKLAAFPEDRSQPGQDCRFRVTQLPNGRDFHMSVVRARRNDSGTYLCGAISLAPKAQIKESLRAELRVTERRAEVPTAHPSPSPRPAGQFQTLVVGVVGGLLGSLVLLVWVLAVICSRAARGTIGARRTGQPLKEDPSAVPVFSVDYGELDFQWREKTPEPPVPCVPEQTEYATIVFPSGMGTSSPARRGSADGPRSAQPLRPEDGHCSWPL

Q: `CC(C)C[C@H]1NC(=O)[C@H](CCCN)NC(=O)[C@H](Cc2ccc(C(=O)O)cc2)NC(=O)[C@H](Cc2ccc(-c3ccccc3)cc2)NC(=O)[C@H](Cc2ccc(C(=O)O)cc2)NC(=O)[C@H](Cc2cccc(C(F)(F)F)c2)NC(=O)[C@H](CC(N)=O)NC(=O)[C@H](Cc2ccc(C(=O)O)cc2)NC(=O)[C@H](CN2CCOCC2)NC(=O)CSC[C@@H](C(=O)N[C@@H](CCN)C(N)=O)NC(=O)[C@H](CCC(=O)O)NC(=O)[C@H](C(C)C)NC(=O)[C@H](CC2CCCCC2)NC(=O)[C@H](CCN)NC1=O` [Example 2722] ({CH2CO}-[Ala(morpholin-4-yl)][Phe(4-COOH)]N[Phe(3-CF3)][Phe(4-COOH)][Bip][Phe(4-COOH)][Orn][dL][Dab][Cha]VEC[Dab]-NH2; thioether N-14) was tested. Which IC50 did it give?
A: 0.105 µM

Q: How did the IC50 turn out when `CCCC[C@@H]1NC(=O)CSC[C@@H](C(=O)N[C@@H](CCN)C(N)=O)NC(=O)[C@H](CCC(=O)O)NC(=O)[C@H](C(C)C)NC(=O)[C@H](CC2CCCCC2)NC(=O)[C@H](CCN)NC(=O)[C@@H](CC(C)C)NC(=O)[C@H](CCCN)NC(=O)[C@H](Cc2ccc(C(=O)O)cc2)NC(=O)[C@H](Cc2ccc(-c3ccccc3)cc2)NC(=O)[C@H](Cc2ccc(C(=O)O)cc2)NC(=O)[C@H](Cc2cccc(C)c2)NC(=O)[C@H](CC(N)=O)NC(=O)[C@H](Cc2ccc(OCC(=O)O)cc2)NC1=O` [Example 2723] ({CH2CO}-[Nle]Y(Carboxymethyl)N[Phe(3-Me)][Phe(4-COOH)][Bip][Phe(4-COOH)][Orn][dL][Dab][Cha]VEC[Dab]-NH2; thioether N-14) was run?
A: 0.2 µM

Q: For `CC(C)C[C@H]1NC(=O)[C@H](CCCN)NC(=O)[C@H](Cc2ccc(OCC(=O)O)cc2)NC(=O)[C@H](Cc2ccc(-c3ccccc3)cc2)NC(=O)[C@H](Cc2ccc(C(=O)O)cc2)NC(=O)[C@H](Cc2cccc(C(F)(F)F)c2)NC(=O)[C@H](CC(N)=O)NC(=O)[C@H](Cc2ccc(OCC(=O)O)cc2)NC(=O)[C@H](CN2CCOCC2)NC(=O)CSC[C@@H](C(=O)N[C@@H](CCN)C(N)=O)NC(=O)[C@H](CO)NC(=O)[C@H](C(C)C)NC(=O)[C@H](CC2CCCCC2)NC(=O)[C@H](CCN)NC1=O` [Example 2724] ({CH2CO}-[Ala(morpholin-4-yl)]Y(Carboxymethyl)N[Phe(3-CF3)][Phe(4-COOH)][Bip]Y(Carboxymethyl)[Orn][dL][Dab][Cha]VSC[Dab]-NH2; thioether N-14), which IC50 is on record?
A: 0.0353 µM

Q: How did the IC50 turn out when `Cc1cccc(C[C@@H]2NC(=O)[C@H](CC(N)=O)NC(=O)[C@H](Cc3ccc(OCC(=O)O)cc3)NC(=O)[C@H](CN3CCOCC3)NC(=O)CSC[C@@H](C(=O)N[C@@H](CCN)C(N)=O)NC(=O)[C@H](CCCN)NC(=O)[C@H](C(C)C)NC(=O)[C@H](CC3CCCCC3)NC(=O)[C@H](CCN)NC(=O)[C@@H](CC(C)C)NC(=O)[C@H](CCCN)NC(=O)[C@H](CCCN)NC(=O)[C@H](Cc3ccc(-c4ccccc4)cc3)NC(=O)[C@H](Cc3ccc(C(=O)O)cc3)NC2=O)c1` [Example 2725] ({CH2CO}-[Ala(morpholin-4-yl)]Y(Carboxymethyl)N[Phe(3-Me)][Phe(4-COOH)][Bip][Orn][Orn][dL][Dab][Cha]V[Orn]C[Dab]-NH2; thioether N-14) was run?
A: 0.0481 µM

Q: How did the IC50 turn out when `CC(C)C[C@H]1NC(=O)[C@H](CCCN)NC(=O)[C@H](CCCN)NC(=O)[C@H](Cc2ccc(-c3ccccc3)cc2)NC(=O)[C@H](Cc2ccc(C(=O)O)cc2)NC(=O)[C@H](Cc2cccc(C(F)(F)F)c2)NC(=O)[C@H](CC(N)=O)NC(=O)[C@H](Cc2ccc(OCC(=O)O)cc2)NC(=O)[C@H](CN2CCOCC2)NC(=O)CSC[C@@H](C(=O)N[C@@H](CCN)C(N)=O)NC(=O)[C@H](CCCN)NC(=O)[C@H](C(C)C)NC(=O)[C@H](CC2CCCCC2)NC(=O)[C@H](CCN)NC1=O` [Example 2726] ({CH2CO}-[Ala(morpholin-4-yl)]Y(Carboxymethyl)N[Phe(3-CF3)][Phe(4-COOH)][Bip][Orn][Orn][dL][Dab][Cha]V[Orn]C[Dab]-NH2; thioether N-14) was run?
A: 0.0655 µM

Q: `Cc1cccc(C[C@@H]2NC(=O)[C@H](CC(N)=O)NC(=O)[C@H](Cc3ccc(C(=O)O)cc3)NC(=O)[C@H](CN3CCOCC3)NC(=O)CSC[C@@H](C(=O)N[C@@H](CCN)C(N)=O)NC(=O)[C@H](CCCN)NC(=O)[C@H](C(C)C)NC(=O)[C@H](CC3CCCCC3)NC(=O)[C@H](CCN)NC(=O)[C@@H](CC(C)C)NC(=O)[C@H](CCCN)NC(=O)[C@H](CCCN)NC(=O)[C@H](Cc3ccc(-c4ccccc4)cc3)NC(=O)[C@H](Cc3ccc(C(=O)O)cc3)NC2=O)c1` [Example 2727] ({CH2CO}-[Ala(morpholin-4-yl)][Phe(4-COOH)]N[Phe(3-Me)][Phe(4-COOH)][Bip][Orn][Orn][dL][Dab][Cha]V[Orn]C[Dab]-NH2; thioether N-14) was tested. Which IC50 did it give?
A: 0.348 µM

Q: How did the IC50 turn out when `CC(C)C[C@H]1NC(=O)[C@H](CCCN)NC(=O)[C@H](CCCN)NC(=O)[C@H](Cc2ccc(-c3ccccc3)cc2)NC(=O)[C@H](Cc2ccc(C(=O)O)cc2)NC(=O)[C@H](Cc2cccc(C(F)(F)F)c2)NC(=O)[C@H](CC(N)=O)NC(=O)[C@H](Cc2ccc(C(=O)O)cc2)NC(=O)[C@H](CN2CCOCC2)NC(=O)CSC[C@@H](C(=O)N[C@@H](CCN)C(N)=O)NC(=O)[C@H](CCCN)NC(=O)[C@H](C(C)C)NC(=O)[C@H](CC2CCCCC2)NC(=O)[C@H](CCN)NC1=O` [Example 2728] ({CH2CO}-[Ala(morpholin-4-yl)][Phe(4-COOH)]N[Phe(3-CF3)][Phe(4-COOH)][Bip][Orn][Orn][dL][Dab][Cha]V[Orn]C[Dab]-NH2; thioether N-14) was run?
A: 0.964 µM

Q: For `CC(C)C[C@H]1NC(=O)[C@H](CCCN)NC(=O)[C@H](Cc2ccc(C(=O)O)cc2)NC(=O)[C@H](Cc2ccc(-c3ccccc3)cc2)NC(=O)[C@H](Cc2ccc(OC3CCCCC3)cc2)NC(=O)[C@H](Cc2cccc(C(F)(F)F)c2)NC(=O)[C@H](CC(=O)O)NC(=O)[C@H](Cc2ccc(C(=O)O)cc2)NC(=O)[C@H](CN2CCOCC2)NC(=O)CSC[C@@H](C(=O)N[C@@H](CCN)C(N)=O)NC(=O)[C@H](CCC(=O)O)NC(=O)[C@H](C(C)C)NC(=O)[C@H](CC2CCCCC2)NC(=O)[C@H](CCN)NC1=O` [Example 2729] ({CH2CO}-[Ala(morpholin-4-yl)][Phe(4-COOH)]D[Phe(3-CF3)]Y(X1)[Bip][Phe(4-COOH)][Orn][dL][Dab][Cha]VEC[Dab]-NH2; thioether N-14), which IC50 is on record?
A: 0.002 µM

Q: With `CC(C)C[C@H]1NC(=O)[C@H](CCCN)NC(=O)[C@H](Cc2ccc(C(=O)O)cc2)NC(=O)[C@H](Cc2ccc(-c3ccccc3)cc2)NC(=O)[C@H](Cc2ccc(Oc3ccccc3)cc2)NC(=O)[C@H](Cc2cccc(C(F)(F)F)c2)NC(=O)[C@H](CC(=O)O)NC(=O)[C@H](Cc2ccc(C(=O)O)cc2)NC(=O)[C@H](CN2CCOCC2)NC(=O)CSC[C@@H](C(=O)N[C@@H](CCN)C(N)=O)NC(=O)[C@H](CCC(=O)O)NC(=O)[C@H](C(C)C)NC(=O)[C@H](CC2CCCCC2)NC(=O)[C@H](CCN)NC1=O` [Example 2730] ({CH2CO}-[Ala(morpholin-4-yl)][Phe(4-COOH)]D[Phe(3-CF3)][Tyr(Ph)][Bip][Phe(4-COOH)][Orn][dL][Dab][Cha]VEC[Dab]-NH2; thioether N-14) as the compound, how does the IC50 read?
A: 0.094 µM

Q: With `CC(C)C[C@H]1NC(=O)[C@H](CCCN)NC(=O)[C@H](Cc2ccc(C(=O)O)cc2)NC(=O)[C@H](Cc2ccc(-c3ccccc3)cc2)NC(=O)[C@H](Cc2ccc(-c3cccnc3)cc2)NC(=O)[C@H](Cc2cccc(C(F)(F)F)c2)NC(=O)[C@H](CC(=O)O)NC(=O)[C@H](Cc2ccc(C(=O)O)cc2)NC(=O)[C@H](CN2CCOCC2)NC(=O)CSC[C@@H](C(=O)N[C@@H](CCN)C(N)=O)NC(=O)[C@H](CCC(=O)O)NC(=O)[C@H](C(C)C)NC(=O)[C@H](CC2CCCCC2)NC(=O)[C@H](CCN)NC1=O` [Example 2731] ({CH2CO}-[Ala(morpholin-4-yl)][Phe(4-COOH)]D[Phe(3-CF3)][Phe(4-(3-Py))][Bip][Phe(4-COOH)][Orn][dL][Dab][Cha]VEC[Dab]-NH2; thioether N-14) as the compound, how does the IC50 read?
A: 0.0015 µM

Q: `Cc1ccccc1-c1ccc(C[C@@H]2NC(=O)[C@H](Cc3cccc(C(F)(F)F)c3)NC(=O)[C@H](CC(=O)O)NC(=O)[C@H](Cc3ccc(C(=O)O)cc3)NC(=O)[C@H](CN3CCOCC3)NC(=O)CSC[C@@H](C(=O)N[C@@H](CCN)C(N)=O)NC(=O)[C@H](CCC(=O)O)NC(=O)[C@H](C(C)C)NC(=O)[C@H](CC3CCCCC3)NC(=O)[C@H](CCN)NC(=O)[C@@H](CC(C)C)NC(=O)[C@H](CCCN)NC(=O)[C@H](Cc3ccc(C(=O)O)cc3)NC(=O)[C@H](Cc3ccc(-c4ccccc4)cc3)NC2=O)cn1` [Example 2732] ({CH2CO}-[Ala(morpholin-4-yl)][Phe(4-COOH)]D[Phe(3-CF3)][Ala(6-(2-MePh)pyridin-3-yl)][Bip][Phe(4-COOH)][Orn][dL][Dab][Cha]VEC[Dab]-NH2; thioether N-14) was tested. Which IC50 did it give?
A: 0.0017 µM

Q: With `CCc1cc(O)ccc1-c1ccc(C[C@@H]2NC(=O)[C@H](Cc3cccc(C(F)(F)F)c3)NC(=O)[C@H](CC(=O)O)NC(=O)[C@H](Cc3ccc(C(=O)O)cc3)NC(=O)[C@H](CN3CCOCC3)NC(=O)CSC[C@@H](C(=O)N[C@@H](CCN)C(N)=O)NC(=O)[C@H](CCC(=O)O)NC(=O)[C@H](C(C)C)NC(=O)[C@H](CC3CCCCC3)NC(=O)[C@H](CCN)NC(=O)[C@@H](CC(C)C)NC(=O)[C@H](CCCN)NC(=O)[C@H](Cc3ccc(C(=O)O)cc3)NC(=O)[C@H](Cc3ccc(-c4ccccc4)cc3)NC2=O)cc1` [Example 2733] ({CH2CO}-[Ala(morpholin-4-yl)][Phe(4-COOH)]D[Phe(3-CF3)][Phe(4-(2-Et-4-HO-Ph))][Bip][Phe(4-COOH)][Orn][dL][Dab][Cha]VEC[Dab]-NH2; thioether N-14) as the compound, how does the IC50 read?
A: 0.0025 µM

Reference: patent publication US20250163104A1, “MACROCYCLIC IMMUNOMODULATORS” (priority 2021, published 2025)
